One block for each compound: values may come before it.
Experiments:
P-gp [1] = test: Western blot of P-gp expression in MDCK-MDR1 cells; type: cell-based, canine; settings: 8 hours
Description: Cells treated with different concentrations of LIG, SENA and SENI for 8 hours were subject to Western blot assay. Proteins were extracted from whole cell lysates and separated by sodium dodecyl sulfate–polyacrylamide gel electrophoresis, then transferred to a polyvinylidene fluoride (PVDF) membrane. The following primary antibodies were used: rabbit anti-P-gp (1:1000; Abcam, Cambridge, MA, USA) and mouse anti-β-actin (1:2000; Abcam). Membranes were then incubated with the horseradish peroxidase-conjugated secondary anti-bodies (1:5000; Abcam). The transferred proteins were incubated with enhanced chemiluminescence (ECL) substrate solution and visualized with the Image J program (Bio-Rad, Richmond, CA, USA). The relative levels were quantified densitometrically by using the Quantity One software (Bio-Rad Laboratories) and calculated according to the reference bands of β-actin.

[2] = test system: MDCK-MDR1 cell monolayers; test: Transport of PF across MDCK-MDR1 cell monolayers (BBB in vitro model), LC-MS/MS; type: in vitro ADME, canine
Description: (§1) Cell monolayers were pre-incubated in Hank's buffered salt solution (HBSS, pH 7.4) for 30 min at 37 °C. Transepithelial electrical resistance (TEER) values were measured across the monolayers using a Millipore Millicell ERS system equipped with chopstick electrodes (Millipore Corporation, Billerica, MA, USA). […] To measure apical (A)→basolateral (B) transporter, 0.5 mL of drug solution was added in A side and 1.5 mL of HBSS in B side. Basolateral (B)→apical (A) transporter was evaluated adding 1.5 mL of drug solution in B side and 0.5 mL of HBSS in A side. […] Each measurement was evaluated in triplicate. Cells were incubated in a 37 °C shaking incubator. […] The supernatants were transferred to autosampler vials and injected into the LC-MS system. An HPLC system consisting of a solvent-delivery system […], an autosampler SIL-30 AC, a column oven CTO-30 AC, a solvent degasser DGU-20A3 and a controller CBM-20A from […] was used in the study. Separation was conducted using a Phenomenex Kinetex NB-C18 (100 × 3.0 mm, 2.6 μm, Torrance, CA, USA). The column oven was maintained at 30 °C. The mobile phase was water as mobile phase A and acetonitrile as mobile phase B. […] The injection volume was set at 5 μL. The MS analysis was performed on a 4500 QTRAPTM system from Applied Biosystems (AB Sciex) equipped with Turbo V sources and Turbo IonsprayTM interface. Electrospray ionization was performed in negative mode. The mass spectrometric parameters were optimized as: Turbo Ion Spray (TIS) temperature, 650 °C; ion spray voltage, -4500 V; curtain gas, nitrogen, 30; nebulizing gas, 50; TIS gas, 50; declustering potential, -130 eV for PF, 0 eV for internal standard (IS, gastrodin); collision energy, -30 eV for PF, -35 eV for IS. […] Analyst SoftwareTM (version 1.6.1) was used to process the obtained data. […] The efflux ratio (ER) was calculated according to the following Equation (4): (4) […]→BL

MDCK-MDR1 monolayers = test: Transepithelial electrical resistance (TEER) before and after permeation; type: cell-based, canine; settings: after versus before permeation
Description: Cell monolayers were pre-incubated in Hank’s buffered salt solution (HBSS, pH 7.4) for 30 min at 37 °C. Transepithelial electrical resistance (TEER) values were measured across the monolayers using a Millipore Millicell ERS system equipped with chopstick electrodes (Millipore Corporation, Billerica, MA, USA). Approximate MDCK-MDR1 values ranged from 500 to 800 Ω·cm^2. To measure apical (A)→basolateral (B) transporter, 0.5 mL of drug solution was added in A side and 1.5 mL of HBSS in B side. Basolateral (B)→apical (A) transporter was evaluated adding 1.5 mL of drug solution in B side and 0.5 mL of HBSS in A side. […] Transepithelial electrical resistance (TEER) of the monolayers was measured with the EVOM instrument (Millipore Corporation). The TEER of untreated cells and cells treated with LIG, SENI and SENA was determined in HBSS before and after the experiment. The measured TEER before the experiment was set as 100% and all other values were calculated according to this.

P-gp (MDR1) = test: Transport of PF across MDCK-MDR1 cell monolayers (BBB in vitro model), LC-MS/MS; type: in vitro ADME, canine; settings: dog, MDCK-MDR1, pH 7.4
Description: as §1

P-gp [3] = test: as above; type: in vitro ADME, canine; settings: dog, MDCK-MDR1, pH 7.4, 400 μg/mL PF + verapamil (P-gp inhibitor), mean ± SD (n = 3)
Description: as §1

[4] = as above; type: in vitro ADME, canine; settings: dog
Description: as §1

[5] = enhancer 40 µg/mL with 400 µg/mL PF, versus PF alone
[6] = enhancer 80 µg/mL with 400 µg/mL PF, versus PF alone
[7] = enhancer 20 µg/mL with 400 µg/mL PF, versus PF alone

Effect on A→B transport (Papp/flux) of PF [2, 5]: significantly increased | Effect on A→B transport (Papp/flux) of PF [2, 6]: significantly increased
Structure (SMILES): CCC/C=C1\OC(=O)C2=C1CCC=C2 [LIG, ligustilide]
P-gp expression versus control group (P-gp [1]; 20 μg/mL): significantly down-regulated | P-gp expression versus control group (P-gp [1]; 40 μg/mL): markedly down-regulated | P-gp expression versus control group (P-gp [1]; 80 μg/mL): markedly down-regulated | TEER change during permeation studies (MDCK-MDR1 monolayers; 20 μg/mL with 400 μg/mL PF): significantly decreased | TEER change during permeation studies (MDCK-MDR1 monolayers; 40 μg/mL with 400 μg/mL PF): markedly decreased | TEER change during permeation studies (MDCK-MDR1 monolayers; 80 μg/mL with 400 μg/mL PF): markedly decreased

efflux ratio at 150 min, 100 μg/mL (P-gp (MDR1)): 2.22 | efflux ratio at 150 min, 200 μg/mL (P-gp (MDR1)): 2.13 | efflux ratio at 150 min, 400 μg/mL (P-gp (MDR1)): 2.21 | efflux ratio at 150 min, 800 μg/mL (P-gp (MDR1)): 2.01 | Papp A→B at 150 min, 400 μg/mL (P-gp [3]): 0.707 ± 0.062 ×10⁻⁶ cm/s | Papp A→B at 150 min, 400 μg/mL ([4]; MDCK-MDR1, pH 7.4, 400 μg/mL PF + 2.5 mmol/L EDTA-Na2, mean ± SD (n = 3)): 2.74 ± 0.212 ×10⁻⁶ cm/s | Papp A→B at 150 min, 100 μg/mL ([4]; MDCK-MDR1, pH 7.4, PF 100 μg/mL, MDCK-MDR1 monolayers, mean ± SD (n = 3)): 0.697 ± 0.053 ×10⁻⁶ cm/s | Papp A→B at 150 min, 200 μg/mL ([4]; MDCK-MDR1, pH 7.4, PF 200 μg/mL, MDCK-MDR1 monolayers, mean ± SD (n = 3)): 0.691 ± 0.082 ×10⁻⁶ cm/s | Papp A→B at 150 min, 400 μg/mL ([4]; MDCK-MDR1, pH 7.4, PF 400 μg/mL, MDCK-MDR1 monolayers, mean ± SD (n = 3)): 0.587 ± 0.088 ×10⁻⁶ cm/s | Papp A→B at 150 min, 600 μg/mL ([4]; MDCK-MDR1, pH 7.4, PF 600 μg/mL, MDCK-MDR1 monolayers, mean ± SD (n = 3)): 0.666 ± 0.072 ×10⁻⁶ cm/s | Papp A→B at 150 min, 800 μg/mL ([4]; MDCK-MDR1, pH 7.4, PF 800 μg/mL, MDCK-MDR1 monolayers, mean ± SD (n = 3)): 0.705 ± 0.107 ×10⁻⁶ cm/s | Papp A→B at 150 min ([4]; MDCK-MDR1, pH 7.4, PF 100-800 μg/mL, MDCK-MDR1 cells, read-out: Papp (A→B), range over tested concentrations): 0.587 to 0.705 ×10⁻⁶ cm/s | Papp B→A at 150 min, 100 μg/mL ([4]; pH 7.4, PF 100 μg/mL, MDCK-MDR1 monolayers, mean ± SD (n = 3)): 1.55 ± 0.092 ×10⁻⁶ cm/s | Papp B→A at 150 min, 200 μg/mL ([4]; pH 7.4, PF 200 μg/mL, MDCK-MDR1 monolayers, mean ± SD (n = 3)): 1.48 ± 0.363 ×10⁻⁶ cm/s | Papp B→A at 150 min, 400 μg/mL ([4]; pH 7.4, PF 400 μg/mL, MDCK-MDR1 monolayers, mean ± SD (n = 3)): 1.3 ± 0.084 ×10⁻⁶ cm/s | Papp B→A at 150 min, 600 μg/mL ([4]; pH 7.4, PF 600 μg/mL, MDCK-MDR1 monolayers, mean ± SD (n = 3)): 1.44 ± 0.201 ×10⁻⁶ cm/s | Papp B→A at 150 min, 800 μg/mL ([4]; pH 7.4, PF 800 μg/mL, MDCK-MDR1 monolayers, mean ± SD (n = 3)): 1.42 ± 0.097 ×10⁻⁶ cm/s | Increase of Papp (A→B) of PF in comparison with the non-EDTA-Na2 added ([2]; 400 μg/mL PF with 2.5 mmol/L EDTA-Na2): about five | Increase of Papp (A→B) of PF in comparison with the non-verapamil added ([2]; 400 μg/mL PF with verapamil): about 1.2 fold | ER (B→A/A→B) ([2]; PF 600 μg/mL, MDCK-MDR1 monolayers): 2.156 | B→A/A→B permeability ER ([2]; PF, all tested concentrations, MDCK-MDR1 cells): more than 2
Structure (SMILES): C[C@@]12C[C@@]3(O)O[C@@H](O1)[C@]1(COC(=O)c4ccccc4)[C@H]3C[C@@]12O[C@@H]1O[C@H](CO)[C@@H](O)[C@H](O)[C@H]1O [PF, paeoniflorin]

Effect on A→B transport (Papp/flux) of PF [2, 7]: significantly increased | Effect on A→B transport (Papp/flux) of PF [2, 5]: significantly increased | Effect on A→B transport (Papp/flux) of PF [2, 6]: significantly increased
Structure (SMILES): CCCCC1OC(=O)C2=C1CCC=C2 (stereo not shown) [SENA, senkyunolide A]
P-gp expression versus control group (P-gp [1]; 20 μg/mL): significantly down-regulated | P-gp expression versus control group (P-gp [1]; 40 μg/mL): markedly down-regulated | P-gp expression versus control group (P-gp [1]; 80 μg/mL): markedly down-regulated | Increase of the transport of PF ([2]; enhancer 80 µg/mL with 400 µg/mL PF, A→B, versus PF alone): approximately 109% | TEER change during permeation studies (MDCK-MDR1 monolayers; 20 μg/mL with 400 μg/mL PF): markedly decreased | TEER change during permeation studies (MDCK-MDR1 monolayers; 40 μg/mL with 400 μg/mL PF): markedly decreased | TEER change during permeation studies (MDCK-MDR1 monolayers; 80 μg/mL with 400 μg/mL PF): significantly decreased

Effect on A→B transport (Papp/flux) of PF [2, 7]: significantly increased | Effect on A→B transport (Papp/flux) of PF [2, 5]: significantly increased | Effect on A→B transport (Papp/flux) of PF [2, 6]: significantly increased
Structure (SMILES): CCC/C=C1\OC(=O)C2=C1CC[C@H](O)[C@H]2O [SENI, senkyunolide I]
P-gp expression versus control group (P-gp [1]; 20 μg/mL): markedly down-regulated | P-gp expression versus control group (P-gp [1]; 40 μg/mL): markedly down-regulated | P-gp expression versus control group (P-gp [1]; 80 μg/mL): markedly down-regulated | TEER change during permeation studies (MDCK-MDR1 monolayers; 80 μg/mL with 400 μg/mL PF): markedly decreased

— PMC6273373, “Elucidation of Transport Mechanism of Paeoniflorin and the Influence of Ligustilide, Senkyunolide I and Senkyunolide A on Paeoniflorin Transport through Mdck-Mdr1 Cells as Blood–Brain Barrier in Vitro Model” (Molecules, 2016)
